Legend:
Estrogen receptor [1] = molecular target: T1, Estrogen receptor (Homo sapiens, UniProt P03372)
T1 sequence (P03372 whole entry): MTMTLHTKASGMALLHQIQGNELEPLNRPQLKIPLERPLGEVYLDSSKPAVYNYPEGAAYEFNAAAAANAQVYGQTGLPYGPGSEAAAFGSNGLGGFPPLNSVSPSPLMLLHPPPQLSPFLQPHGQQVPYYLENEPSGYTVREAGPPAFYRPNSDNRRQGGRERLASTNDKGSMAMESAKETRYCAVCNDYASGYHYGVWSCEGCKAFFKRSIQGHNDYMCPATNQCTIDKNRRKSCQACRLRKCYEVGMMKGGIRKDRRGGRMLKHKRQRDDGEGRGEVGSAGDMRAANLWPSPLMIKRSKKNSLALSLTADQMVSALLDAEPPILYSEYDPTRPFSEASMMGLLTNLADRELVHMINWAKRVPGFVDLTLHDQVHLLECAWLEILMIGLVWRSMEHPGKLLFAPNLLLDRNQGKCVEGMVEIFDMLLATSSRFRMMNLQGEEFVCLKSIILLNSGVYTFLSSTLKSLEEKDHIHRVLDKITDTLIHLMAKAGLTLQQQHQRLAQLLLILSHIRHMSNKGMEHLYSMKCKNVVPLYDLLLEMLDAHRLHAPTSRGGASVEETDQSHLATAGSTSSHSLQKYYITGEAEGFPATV
Description: Agonist activity at RST7-ERalpha (unknown origin) co-expressed with (ERE)TK-luciferase reporter plasmid transfected in human HepG2 cells incubated for 24 hrs by Renilla luciferase based reporter assay

Estrogen receptor [2] = molecular target: T1, Estrogen receptor; remark: listed apart in the source

Structure (SMILES): Oc1ccc(CNc2nc(Cl)nc3scc(-c4ccccc4)c23)cc1O
- EC50 (Estrogen receptor [1]): > 10 µM
- EC50 (Estrogen receptor [2]): > 10 µM
